Patent US11685741B2, “Fluorescent probes” (University of Massachusetts, priority 2017, dated 2023)

Assay: Binding studies of sensor with Fe3+ (Job's plot, titration, EDTA reversibility)
Method: Job's method and UV-vis spectra were applied to study the binding stoichiometry between Rh-PK and Fe^3+ and monitored by the absorbance at 555 nm. […] The binding constant of this complex was calculated following a method reported previously (G. E. Tumambac, et al., Tetrahedron 2004, 60, 11293-11297), using absorption values at […] by the equations described below, and was determined to be 1.54×10^7 […].
The equations below was used to calculate the binding constants with stoichiometry of 1:1. L+S↔LS where L=sensor, S=Fe3+ and LS=sensor-Fe^3+ complex. The apparent binding constant is given by
[formula] Fe is the fraction of L that formed a complex, [LS]e is concentration at equilibrium, [L]0 is the initial concentration. Au, Am, and Ac are the absorbances of solutions of L (before any Fe^3+ was added), during the titration and at saturation, respectively. The concentration of free Fe^3+ at equilibrium, [S]e, is found with the following identity. [S]e=[S]o−[LS]e=[S]o−Fc[L]o The apparent binding constant K can then be calculated from
Reversibility experiments were carried out by adding EDTA to the complex in ACN/Tris-HCl buffer (10 mM, pH 7.3, v/v 3:1). […]
The stoichiometry of RhHPA-Fe^3+ was measured using Job's plot and mole ratio plots methods. B. Valeur, Molecular Fluorescence: Principles and Applications, Wiley-VCH. […] To determine the binding constant of chemosensor, a fluorescence titration of different amounts of Fe^3+ into the acetonitrile solution of sensor was carried out. […] The determination of the binding constant of RhHPA was calculated using the following equation: F−Fmin=[…](Fmax−Fmin)/Kd where F is the observed fluorescence, Fmax is the maximum fluorescence for the RhHPA-Fe^3+ complex at concentration of the equal reacted between sensor and metal cation, Fmin is the fluorescence intensity for occurring RhHPA-Fe^3+.
Absorption enhancement observation at 558 nm was plotted against the molar value of the [Fe^3+]/[Fe^3+]+RhHPA and [Fe^3+]/RhHPA. […] Binding constant of fluorescent sensor “RhHPA” was calculated and it was found as K=1.27×10^7 M^−1. […]

SMILES: CCN(CC)c1ccc2c(c1)Oc1cc(N(CC)CC)ccc1C21c2ccccc2C(=O)N1CC/N=C(\C)c1cccc(C(C)=O)n1 [Rh-PK, (E)-2-(2-((1-(6-acetylpyridin-2-yl)ethylidene)amino)ethyl)-3′,6′-bis(diethylamino)spiro[isoindoline-1,9′-xanthen]-3-one]
- binding constant (1:1 Fe^3+-Rh-PK complex, from absorption titration): 1.54e+07 M⁻¹
- apparent binding constant (1:1 sensor-Fe^3+ complex, ACN/Tris-HCl buffer pH 7.3): 1.54e+07 M⁻¹
